Source: US8961970B2, “Combination therapy” (Novartis AG, priority 2012, dated 2015)

Experiments:
Miapaca-2 cells = experiment: Cell proliferation / viability assay (CellTiter-Glo, dose matrix) in Miapaca-2 cells; format: cell-based
Protocol: (§1) A cell proliferation assay was performed to investigate the activity of the combination of COMPOUND A and ANTIBODY A on Insulin-like Growth Factor 1 (IGF1)-induced proliferation of the KRAS mutant cell lines Miapaca-2 and AsPC-1. To evaluate the combination effect in a non-biased way, and to identify synergistic effects at different concentrations, the study was conducted using a “dose matrix” scheme (described in detail below).
(§2) COMPOUND A (10 mM) was stored in aliquots at −20° C. ANTIBODY A (0.2 mM in 1% BSA) was stored in aliquots at 4° C. Insulin-like Growth Factor-1 (IGF1; R&D System, Cat #291-G1) was reconstituted at 100 ug/mL in sterile Phosphate Buffered Saline (PBS).
(§3) The KRAS mutant, pancreatic cancer cell lines Miapaca-2 and AsPC-1 were cultured in DMEM medium (ATCC Cat #30-2002) and RPMI-1640 (ATCC Cat #30-2001) plus 10% Fetal Bovine Serum (FBS; Invitrogen Cat #10099-141) as recommended by the supplier. Cells were cultured in T-150 flasks using standard cell culture techniques and split upon reaching 80% confluency. TryPLE Express (Invitrogen #12604-013, no phenal red) was used for all cell dissociation. Cell count and viability were measured using Trypan dye exclusion with a ViCell counter (Beckman-Coulture). Cells were determined to be free of Mycoplasma using a PCR detection method (www.radil.missouri.edu). […]

AsPC-1 cells = experiment: Cell proliferation / viability assay (CellTiter-Glo, dose matrix) in AsPC-1 cells; format: cell-based
Protocol: as §1, §2, §3

Q: `Cn1cnc2c(F)c(Nc3ccc(Br)cc3F)c(C(=O)NOCCO)cc21` [COMPOUND A, 6-(4-bromo-2-fluorophenylamino)-7-fluoro-3-methyl-3H-benzoimidazole-5-carboxylic acid (2-hydroxyethyoxy)-amide] was tested. Which “single agent anti-proliferative activity” value (Miapaca-2 cells; Miapaca-2, KRAS mutant pancreatic cancer cell line, 120 hours incubation, presence and absence of IGF1 (100 ng/ml)) did it give?
A: The value was “concentration dependent anti-proliferative activity”.

Q: And the “effect of addition of IGF1 on single agent activity” value (Miapaca-2 cells; Miapaca-2, with versus without IGF1)?
A: Its value is “slightly dampen”.

Q: What about the “single agent anti-proliferative activity” value (AsPC-1 cells; AsPC-1, KRAS mutant pancreatic cancer cell line, 120 hours incubation, presence and absence of IGF1 (100 ng/ml)) of the same compound?
A: Its value is “concentration dependent anti-proliferative activity”.

Q: And the “effect of addition of IGF1 on single agent activity” value (AsPC-1 cells; AsPC-1, with versus without IGF1)?
A: The value was “slightly dampen”.
